For 14 compounds, inhibition results are on record in patent US20120058999A1, “Substituted Tetrahydropyrrolopyrazine Compounds” (Gruenenthal GmbH, priority 2010, published 2012).

In assay [1] the target is T1, human B1R (Homo sapiens, UniProt P46663).
T1 construct: expressed in transfected cells; host or cells: CHO K1 cells (stably transfected)
T1 sequence (P46663 1-353): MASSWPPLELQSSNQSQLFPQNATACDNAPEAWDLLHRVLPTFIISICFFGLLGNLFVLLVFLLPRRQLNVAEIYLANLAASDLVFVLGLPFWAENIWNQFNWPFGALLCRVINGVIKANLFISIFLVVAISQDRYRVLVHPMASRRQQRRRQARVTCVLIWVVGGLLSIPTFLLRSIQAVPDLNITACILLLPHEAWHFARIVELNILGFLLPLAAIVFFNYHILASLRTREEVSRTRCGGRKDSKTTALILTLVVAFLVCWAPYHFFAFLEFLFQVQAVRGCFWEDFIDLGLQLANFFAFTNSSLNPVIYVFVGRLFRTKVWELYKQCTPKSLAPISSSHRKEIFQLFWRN
The experiment in a line: Functional investigation on the bradykinin 1 receptor, cell-based fluorescent calcium-mobilization assay (FLIPR), human. Particulars: 10 μM test substance; CHO K1 cells transfected with human B1R gene; agonist Lys-Des-Arg9-bradykinin at EC80; % of maximum achievable inhibition. The protocol: (§1) The agonistic or antagonistic action of substances can be quantified on the bradykinin 1 receptor (B1R) of the human and rat species with ectopically expressing cell lines (CHO K1 cells) and with the aid of a Ca2+-sensitive dye (Fluo-4) using a fluorescent imaging plate reader (FLIPR). The value in % activation is based on the Ca2+ signal after addition of Lys-Des-Arg9 bradykinin (0.5 nM) or Des-Arg9 bradykinin (100 nM). Antagonists lead to a suppression of the Ca2+ influx following administration of the agonist. The % inhibition in comparison with the maximum achievable inhibition is indicated.
(§2) The agonistic or antagonistic action of substances can be determined on the bradykinin 1 receptor (B1R) of humans and rats by means of a cell-based fluorescent calcium-mobilization assay. According to this assay agonist-induced increase of intracellular free Ca^2+ is quantified by means of a Ca^2+-sensitive dye (Fluo-4 type, Molecular Probes Europe BV, Leiden, Netherlands), in a Fluorescent Imaging Plate Reader (FLIPR, Molecular Devices, Sunnyvale, USA) and/or the Novostar (BMG Labtech GmbH, Offenburg, Germany).
(§3) Chinese hamster ovary cells (CHO K1 cells), which are stably transfected with the human B1R gene (hB1R cells), or with the B1R gene of rats (rB1R cells) are used. For functional investigations these cells are seeded into black 96-well plates with a clear bottom (BD Biosciences, Heidelberg, Germany or Greiner, Frickenhausen, Germany) in a density of 20,000-35,000 cells/well. The cells are incubated overnight in a humidified atmosphere at 37° C. and 5% CO2 in culture medium (hB1R cells: Nutrient Mixture Ham's F12, Gibco Invitrogen GmbH, Karlsruhe, Germany or DMEM, Sigma-Aldrich, Taufkirchen, Germany; rB1R cells: D-MEM/F12, Gibco Invitrogen GmbH, Karlsruhe, Germany) with 10 vol. % FBS (foetal bovine serum, Gibco Invitrogen GmbH, Karlsruhe, Germany). On the following day the cells are loaded with the Ca^2+-sensitive dye Fluo-4-AM (Molecular Probes Europe BV, Leiden, Netherlands):
(§4) Method A: The medium of the cells is removed and cell plates are incubated with loading solution, which contains 2.13 μM Fluo-4-AM, 2.5 mM probenecid (Sigma-Aldrich, Taufkirchen, Germany), and 10 mM HEPES (Sigma-Aldrich, Taufkirchen, Germany) in HBSS buffer (Hank's buffered saline solution, Gibco Invitrogen GmbH, Karlsruhe, Germany) for 60 minutes at 37° C. After the plates are washed twice with HBSS buffer, HBSS buffer supplemented 0.1% BSA (bovine serum albumin; Sigma-Aldrich, Taufkirchen, Germany), 5.6 mM glucose and 0.05% gelatine (Merck KGaA, Darmstadt, Germany) is added. Cell plates are incubated for at least 20 minutes in the dark at room temperature before they are used for the Ca^2+ measurement in the FLIPR or Novostar. Method B: The plates are washed with buffer A (15 mM HEPES, 80 mM NaCl, 5 mM KCl, 1.2 mM CaCl2, 0.7 mM MgSO4, 2 mg/ml glucose, 2.5 mM probenecid) and subsequently loaded with buffer A containing 2.4 μM Fluo-4-AM and 0.025% pluronic F127 (Sigma-Aldrich, Taufkirchen, Germany) for 60 minutes at 37° C. Cell plates are washed twice with buffer A. Then, buffer A supplemented with 0.05% BSA and 0.05% gelatine is added and cell plates are incubated in the dark at room temperature for at least 20 minutes before measurement in the FLIPR or Novostar is started.
(§5) The Ca^2+-dependent fluorescence is measured both before and after the addition of substances (λex=488 nm, λem=540 nm). For quantification of the effect the highest fluorescence intensity (FC, fluorescence counts) over time is given.
(§6) The FLIPR protocol consists of two substance additions, done within the instrument while continuously monitoring the Ca^2+-dependent fluorescence at 540 nm. When the Novostar was used, one addition had to be done outside the instrument. First of all test substances (10 μM) are pipetted onto the cells and the intracellular Ca^2+ rise is compared with the control (hB1R: Lys-Des-Arg9-bradykinin >=50 nM; rB1R: Des-Arg9-bradykinin >=1 μM). […]

Assay [2] addresses T2, rat B1R (Rattus norvegicus, UniProt P97583).
T2 construct: expressed in transfected cells; host or cells: CHO K1 cells (stably transfected)
T2 sequence (P97583 1-337): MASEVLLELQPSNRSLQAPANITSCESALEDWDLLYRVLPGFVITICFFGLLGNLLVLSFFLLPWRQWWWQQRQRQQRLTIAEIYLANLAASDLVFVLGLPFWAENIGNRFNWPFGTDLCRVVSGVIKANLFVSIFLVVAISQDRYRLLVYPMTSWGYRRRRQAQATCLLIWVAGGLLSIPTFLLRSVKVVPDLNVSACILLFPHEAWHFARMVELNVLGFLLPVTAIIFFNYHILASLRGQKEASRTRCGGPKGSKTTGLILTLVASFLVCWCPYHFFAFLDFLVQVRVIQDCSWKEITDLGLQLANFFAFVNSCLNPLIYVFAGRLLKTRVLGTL
The experiment in a line: Functional investigation on the bradykinin 1 receptor, cell-based fluorescent calcium-mobilization assay (FLIPR), rat. Particulars: 10 μM test substance; CHO K1 cells transfected with rat B1R gene; agonist Des-Arg9-bradykinin at EC80; % of maximum achievable inhibition. As to the method:
as §1, §2, §3, §4, §5, §6

The structures appear in SMILES notation.

As usually defined, the inhibition is the change of the read-out against control, counted positive when it falls. Take `Cc1cccc(Cl)c1S(=O)(=O)N1CCn2cccc2C1COCC(=O)N(C)[C@H]1CCC[C@@H](N2CCN(C)CC2)C1` (stereo partly drawn) [SC-02, 2-[[2-[(2-Chloro-6-methyl-phenyl)sulfonyl]-1,2,3,4-tetrahydro-pyrrolo[1,2-a]pyrazin-1-yl]-methoxy]-N-methyl-N-[(1S,3R)-3-(4-methyl-piperazin-1-yl)-cyclohexyl]-acetamide]: the figures for the inhibition at 10 µM in assay [1] and in assay [2] were 100% and 105%, respectively.

For the compound `COc1ccc2cc(S(=O)(=O)N3CCn4cccc4C3CC(=O)N(C)C3CCCC(N4CCOCC4)C3)ccc2c1` (stereo not shown) [CC-56, 2-[2-[(6-Methoxy-naphthalen-2-yl)sulfonyl]-1,2,3,4-tetrahydro-pyrrolo[1,2-a]pyrazin-1-yl]-N-methyl-N-(3-morpholin-4-yl-cyclohexyl)-acetamide], the inhibition at 10 µM in assay [1] came to 99%.

Take `Cc1cc(S(=O)(=O)N2CCn3cccc3C2CCC(=O)N(C)[C@H]2CCC[C@@H](N3CCN(C)CC3)C2)c(C)cc1Cl` (stereo partly drawn) [SC-03, 3-[2-[(4-Chloro-2,5-dimethyl-phenyl)sulfonyl]-1,2,3,4-tetrahydro-pyrrolo[1,2-a]pyrazin-1-yl]-N-methyl-N-[(1S,3R)-3-(4-methyl-piperazin-1-yl)-cyclohexyl]-propionamide]: the inhibition at 10 µM in assay [1] was determined as 95%; in assay [2], 61%.

Take `COc1cc(C)c(S(=O)(=O)N2CCn3c(C)ccc3C2COCC(=O)N(C)[C@H]2CCC[C@@H](N3CCN(C)CC3)C2)c(C)c1` (stereo partly drawn) [SC-06, 2-[[2-[(4-Methoxy-2,6-dimethyl-phenyl)sulfonyl]-6-methyl-1,2,3,4-tetrahydro-pyrrolo[1,2-a]pyrazin-1-yl]-methoxy]-N-methyl-N-[(1S,3R)-3-(4-methyl-piperazin-1-yl)-cyclohexyl]-acetamide]: the inhibition at 10 µM in assay [1] was 97%; in assay [2], 110%.

Turning to `COc1cc(C)c(S(=O)(=O)N2CCn3cccc3C2COCC(=O)N(C)[C@H]2CCC[C@@H](N3CCN(C)CC3)C2)c(C)c1` (relative stereo) [CC-01, 2-[[2-[(4-Methoxy-2,6-dimethyl-phenyl)sulfonyl]-1,2,3,4-tetrahydro-pyrrolo[1,2-a]pyrazin-1-yl]-methoxy]-N-methyl-N-[cis-3-(4-methyl-piperazin-1-yl)-cyclohexyl]-acetamide], the values for the inhibition at 10 µM in assay [1] and in assay [2] were 100% and 105%, respectively.

Consider `COc1cc(C)c(S(=O)(=O)N2CCn3cccc3C2COCC(=O)N(C)C2CC(N3CCN(C)CC3)C2)c(C)c1` (stereo not shown) [CC-58, 2-[[2-[(4-Methoxy-2,6-dimethyl-phenyl)sulfonyl]-1,2,3,4-tetrahydro-pyrrolo[1,2-a]pyrazin-1-yl]-methoxy]-N-methyl-N-[3-(4-methyl-piperazin-1-yl)-cyclobutyl]-acetamide], for which the inhibition at 10 µM in assay [1] is 38%; in assay [2], 88%.

As to `CC(C)N1CCN(C2CCCC(N(C)C(=O)CCC3c4cccn4CCN3S(=O)(=O)c3cccc(C(F)(F)F)c3)C2)CC1` (stereo not shown) [CC-53, N-[3-(4-Isopropyl-piperazin-1-yl)-cyclohexyl]-N-methyl-3-[2-[[3-(trifluoromethyl)phenyl]sulfonyl]-1,2,3,4-tetrahydro-pyrrolo[1,2-a]pyrazin-1-yl]-propionamide], the inhibition at 10 µM in assay [1] came out at 87%.

Turning to `COc1ccc2cc(S(=O)(=O)N3CCn4cccc4C3CC(=O)N(C)C3CCCC(N4CCN(C(C)C)CC4)C3)ccc2c1` (stereo not shown) [CC-52, N-[3-(4-Isopropyl-piperazin-1-yl)-cyclohexyl]-2-[2-[(6-methoxy-naphthalen-2-yl)sulfonyl]-1,2,3,4-tetrahydro-pyrrolo[1,2-a]pyrazin-1-yl]-N-methyl-acetamide], the inhibition at 10 µM in assay [1] came out at 100%.

Take `COc1cc(C)c(S(=O)(=O)N2CCn3cccc3C2CCCC(=O)N(C)C2CCCC(N3CCN(C(C)C)CC3)C2)c(C)c1` (stereo not shown) [CC-51, N-[3-(4-Isopropyl-piperazin-1-yl)-cyclohexyl]-4-[2-[(4-methoxy-2,6-dimethyl-phenyl)sulfonyl]-1,2,3,4-tetrahydro-pyrrolo[1,2-a]pyrazin-1-yl]-N-methyl-butyramide]: in assay [1], the inhibition at 10 µM came to 99%.

With `COc1cc(C)c(S(=O)(=O)N2CCn3cccc3C2COCC(=O)N(C)C2CCCC(N3CCN(C(C)C)CC3)C2)c(C)c1` (stereo not shown) [CC-50, N-[3-(4-Isopropyl-piperazin-1-yl)-cyclohexyl]-2-[[2-[(4-methoxy-2,6-dimethyl-phenyl)sulfonyl]-1,2,3,4-tetrahydro-pyrrolo[1,2-a]pyrazin-1-yl]-methoxy]-N-methyl-acetamide], the inhibition at 10 µM in assay [1] turned out to be 99%.

With `COc1cc(C)c(S(=O)(=O)N2CCn3cccc3C2CCCC(=O)N(C)C2CCCC(N3CCOCC3)C2)c(C)c1` (stereo not shown) [CC-55, 4-[2-[(4-Methoxy-2,6-dimethyl-phenyl)sulfonyl]-1,2,3,4-tetrahydro-pyrrolo[1,2-a]pyrazin-1-yl]-N-methyl-N-(3-morpholin-4-yl-cyclohexyl)-butyramide], the inhibition at 10 µM in assay [1] was 88%.

For `CN(C(=O)CCC1c2cccn2CCN1S(=O)(=O)c1cccc(C(F)(F)F)c1)C1CCCC(N2CCOCC2)C1` (stereo not shown) [CC-57, N-Methyl-N-(3-morpholin-4-yl-cyclohexyl)-3-[2-[[3-(trifluoromethyl)phenyl]sulfonyl]-1,2,3,4-tetrahydro-pyrrolo[1,2-a]pyrazin-1-yl]-propionamide], the inhibition at 10 µM in assay [1] came to 39%.

For `COc1ccc2cc(S(=O)(=O)N3CCn4cccc4C3CC(=O)N[C@H]3CCC[C@@H](N4CCN(C)CC4)C3)ccc2c1` (relative stereo) [CC-09, 2-[2-[(6-Methoxy-naphthalen-2-yl)sulfonyl]-1,2,3,4-tetrahydro-pyrrolo[1,2-a]pyrazin-1-yl]-N-[cis-3-(4-methyl-piperazin-1-yl)-cyclohexyl]-acetamide], the inhibition at 10 µM in assay [1] worked out at 100%.

For the compound `COc1cc(C)c(S(=O)(=O)N2CCn3cccc3C2COCC(=O)N(C)C2CCCC(N3CCOCC3)C2)c(C)c1` (stereo not shown) [CC-54, 2-[[2-[(4-Methoxy-2,6-dimethyl-phenyl)sulfonyl]-1,2,3,4-tetrahydro-pyrrolo[1,2-a]pyrazin-1-yl]-methoxy]-N-methyl-N-(3-morpholin-4-yl-cyclohexyl)-acetamide], the inhibition at 10 µM in assay [1] was 98%.
